Laboratory results published in US20230149409A1, “TREATMENT OF HUMAN PAPILLOMAVIRUS-ASSOCIATED CANCERS BY PD-L1 INHIBITORS” (priority 2021, published 2023).

Assays:
[1] = target: T1, PD-⅟PD-L1 (recombinant human PD-L1 protein and human PD-1 protein) (Homo sapiens, UniProt Q9NZQ7); test: Homogeneous Time-Resolved Fluorescence (HTRF) PD-1/PD-L1 binding assay; conditions: 3 nM PD1, 10 nM PD-L1, 25° C., PBS pH 7.4
T1 construct: Recombinant human PD-L1 protein (19-238) with a His-tag at the C-terminus; purchased AcroBiosystems PD1-H5229 (PD-L1); PD1-H5257 (PD-1)
T1 sequence (Q9NZQ7 19-238): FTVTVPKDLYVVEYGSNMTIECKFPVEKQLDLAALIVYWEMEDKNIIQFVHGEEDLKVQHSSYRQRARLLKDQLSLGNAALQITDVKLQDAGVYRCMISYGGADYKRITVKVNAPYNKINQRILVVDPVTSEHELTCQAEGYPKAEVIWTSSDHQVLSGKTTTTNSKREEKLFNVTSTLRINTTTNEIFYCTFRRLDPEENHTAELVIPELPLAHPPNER
Description: Homogeneous Time-Resolved Fluorescence (HTRF) PD-⅟PD-L1 Binding Assay
The assays were conducted in a standard black 384-well polystyrene plate with a final volume of 20 uL. Inhibitors were first serially diluted in DMSO and then added to the plate wells before the addition of other reaction components. The final concentration of DMSO in the assay was 1%. The assays were carried out at 25° C. in the PBS buffer (pH 7.4) with 0.05% Tween-20 and 0.1% BSA. […] PD-L1 and PD-1 proteins were diluted in the assay buffer and 10 uL was added to the plate well. Plates were centrifuged and proteins were preincubated with inhibitors for 40 minutes. The incubation was followed by the addition of 10 uL of HTRF detection buffer supplemented with Europium cryptate-labeled anti-human IgG (PerkinElmer-AD0212) specific for Fc and anti-His antibody conjugated to SureLight®-Allophycocyanin (APC, PerkinElmer-AD0059H). […] Final concentrations in the assay were - 3 nM PD1, 10 nM PD-L1, 1 nM europium anti-human IgG and 20 nM anti-His-Allophycocyanin. IC50 determination was performed by fitting the curve of percent control activity versus the log of the inhibitor concentration using the GraphPad Prism 5.0 software.

[2] = target: T2, PD-L1 on CD14+ cells in human whole blood (Homo sapiens, UniProt Q9NZQ7); test: PD-L1 whole blood internalization assay; assay type: cell-based; conditions: 1 ng/mL interferon γ, CD14+ gated, 24 hour
T2 construct: Cells were gated on CD14+ (BD Biosciences) and PD-L1 expression determined by mean fluorescence intensity; host or cells: CD14+ cells in normal human whole blood, stimulated with human interferon gamma
T2 sequence (Q9NZQ7 19-290): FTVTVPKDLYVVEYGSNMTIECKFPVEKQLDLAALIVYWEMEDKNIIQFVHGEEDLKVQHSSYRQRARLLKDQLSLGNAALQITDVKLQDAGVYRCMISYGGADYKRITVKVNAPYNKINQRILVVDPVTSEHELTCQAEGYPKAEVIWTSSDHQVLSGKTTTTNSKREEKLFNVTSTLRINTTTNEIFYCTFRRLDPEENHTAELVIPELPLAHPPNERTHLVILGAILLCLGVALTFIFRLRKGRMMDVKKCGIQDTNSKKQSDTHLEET
Description: PD-L1 Whole Blood Internalization Assay
To determine PD-L1 internalization in human whole blood, normal human blood (Biological Specialty Corp, Colmar. PA) was incubated in the presence or absence of a concentration range of test compounds and 1 ng/mL human interferon γ (R&D Systems Inc. Minn. MN) in a 96 well “2 mL Assay Block” (Corning, Corning NY) for 18-20 hours at 37 °C. Blood was then stained with PD-L1 (MIH1, eBioscience; or BD Biosciences San Jose, CA), CD14 (Life Technologies, Carlsbad, CA) for 30 minutes in the dark at room temperature. Whole Blood/red cells were lysed/fixed (lysis buffer BD Biosciences) for 5 minutes at 37 °C in the dark and then centrifuged at 1600 RPM for 5 minutes. Cells were resuspended in Stain Buffer (BD Bioscience, San Jose, CA) and transferred into 96 well round bottom plates (Coming). Cells were gated on CD14+ (BD Biosciences) and PD-L1 expression determined by mean fluorescence intensity (MFI) (BD LSRFortessa® X-20). IC50 determination was performed by fitting the curve of compound percent inhibition versus the log of the compound concentration using the GraphPad Prism 7.0 software.

[3] = test system: PD-L1 (U2OS/PD-L1 cells, Jurkat-PD-1-SHP cells); test: Src Homology Region 2 Domain-containing Phosphatase (SHP) assay; assay type: cell-based; conditions: Homo sapiens; U2OS/PD-L1 + Jurkat-PD-1-SHP cells, 2 hours
Description: Example 1B. Src Homology Region 2 Domain-containing Phosphatase (SHP) Assay
U2OS/PD-L1 cells (DiscoveRx Corporation) were maintained in McCoy’s 5A medium with addition of 10% FBS, 0.25 µg/mL Puromycin. After removing the culture media, the cell medium was replaced with assay medium (RPMI1640 medium with 1% FBS). The U2OS/PD-L1 cells were then added in 384-well black clear bottom assay plate (CELLCOAT® Tissue Culture Plates, Greiner Bio-One) at 5000 cells per well in 20 uL assay medium. Test compounds were prepared by serial dilution in DMSO and 125 nL compound were first transferred to the 384 REMP plate well (Thermofisher) by ECHO liquid handler (Labcyte) followed with addition of 27.5 uL assay medium. 5 µL/well compounds in the assay medium were transferred to the cell plate with 0.05% DMSO in the final assay at 0.25 µM. Jurkat-PD-1-SHP cells (DiscoveRx Corporation) were cultured in RPMI1640 medium supplemented with 10% FBS, 250 µg/mL Hygromycin B, 500 µg/mL G418. After the replacement of culture media with assay medium, 5,000 Jurkat-PD-1-SHP cells in 20 µL were dispensed into each well. The assay plate was incubated at 37° C., 5% CO2 for 2 hours before 2.5 uL PathHunter reagent 1 (DiscoveRx Corporation) were added to each well. The assay plate was shaken for 1 min at 350 rpm in the dark followed with addition of 10 uL PathHunter reagent 2 (DiscoveRx Corporation). Chemiluminescent signal was recorded with TopCount reader (Perkin Elmer) after incubation at room temperature for 1 hour. Wells with DMSO were served as the positive controls and wells containing no cells were used as negative controls. IC50 determination was performed by fitting the curve of percentage of control activity versus the log of the compound concentration using the GraphPad Prism 6.0 software.

[4] = test system: PD-L1 (PD-L1 aAPC/CHO-K1 cells, Jurkat-PD-1-NFAT effector cells); test: Nuclear Factor of Activated T-cells (NFAT) assay; assay type: cell-based; conditions: Cricetulus griseus; PD-L1 aAPC/CHO-K1 + Jurkat-PD-1-NFAT cells, 24 hours
Description: Nuclear Factor of Activated T-cells (NFAT) Assay
PD-L1 aAPC/CHO-K1cells (Promega) were maintained in F-12 medium with addition of 10% FBS, 200 µg/mL Hygromycin B, 250 µg/mL Geneticin (G418). […] The culture media of PD-L1 aAPC/CHO-K1 cells were first replaced with assay medium (RPMI1640 medium with 1% FBS). The PD-L1 aAPC/CHO-K1cells were then added in a white 384-well white clear bottom assay plate (CELLCOAT® Tissue Culture Plates, Greiner Bio-One) at 8000 per well in 10 uL assay medium. […] 5 uL compounds in the assay medium were transferred to the cells with 0.4% DMSO in the final assay at 2 µM. After removing the culture media, 10,000 Jurkat-PD-1-NFAT effector cells in 5 µL assay medium was dispensed into each well. The assay plate was incubated at 37° C., 5% CO2 for 24 hours. […] After 8 minutes incubation at room temperature, luminescence was read at with Pherastar microplate reader (BMG Labtech). The fold of induction (FOI) was calculated based on the ratio of luminescence normalized to the DMSO wells within each assay plate. The maximum percentage of induction was reported based on the ratio between the highest FOI of each compound and the maximum FOI of control compound within each assay plate. Wells with DMSO were served as the negative controls and wells containing control compound with the highest FOI were used as positive controls. EC50 determination was performed by fitting the curve of percent control activity versus the log of the compound concentration using the GraphPad Prism 6.0 software.

Cc1c(NC(=O)c2nc3c(n2C)CCN(CCC24CCC(C(=O)O)(CC2)C4)C3)cccc1-c1cccc(NC(=O)c2nc3c(n2C)CCN(CCC24CCC(C(=O)O)(CC2)C4)C3)c1Cl [Compound 32, 4,4′-(((((2-chloro-2′-methyl-[1,1′-biphenyl]-3,3′-diyl)bis(azanediyl))bis(carbonyl))bis(1-methyl-1,4,6,7-tetrahydro-5H-imidazo[4,5-c]pyridine-2,5-diyl))bis(ethane-2,1-diyl))bis(bicyclo[2.2.1]heptane-1-carboxylic acid)]
IC50 [1]: < 0.01 µM
IC50 [2]: < 0.1 µM
IC50 [3]: < 0.01 µM
EC50 [4]: < 0.1 µM

CCN(C)CC(=O)N1Cc2nc(-c3cccc(-c4cccc(NC(=O)c5nc6c(n5C)CCN(CCC5CCC(C(=O)O)CC5)C6)c4Cl)c3C)sc2C1 (stereo not drawn) [Compound 22, 4-(2-(2-(2-chloro-3′-(5-(2-(ethyl(methyl)amino)acetyl)-5,6-dihydro-4H-pyrrolo[3,4-d]thiazol-2-yl)-2′-methylbiphenyl-3-ylcarbamoyl)-1-methyl-6,7-dihydro-1H-imidazo[4,5-c]pyridin-5(4H)-yl)ethyl)cyclohexane-1-carboxylic acid]
IC50 [1]: < 0.01 µM
IC50 [2]: < 0.5 µM
IC50 [3]: < 0.01 µM
EC50 [4]: < 0.1 µM

CCN(C)CC(=O)N1Cc2nc(-c3cccc(-c4cccc(NC(=O)c5nc6c(n5C)CCN(C[C@H]5CC[C@@H](C(=O)O)CC5)C6)c4Cl)c3C)sc2C1 [Compound 21, cis-4-((2-(2-chloro-3′-(5-(2-(ethyl(methyl)amino)acetyl)-5,6-dihydro-4H-pyrrolo[3,4-d]thiazol-2-yl)-2′-methylbiphenyl-3-ylcarbamoyl)-1-methyl-6,7-dihydro-1H-imidazo [4,5-c]pyridin-5 (4H)-yl)methyl)cyclohexane-1-carboxylic acid]
IC50 [1]: < 0.01 µM
IC50 [2]: < 0.1 µM
IC50 [3]: < 0.01 µM
EC50 [4]: < 0.1 µM

Cc1c(Nc2nccc3cc(CN4CC[C@@H](O)C4)cnc23)cccc1-c1cccc(NC(=O)c2nc3c(n2C)CCN(CC[C@H]2CC[C@H](C(=O)O)CC2)C3)c1Cl [Compound 10, trans 4-(2-(2-(2-chloro-3′-(3-(((R)-3-hydroxypyrrolidin-1-yl)methyl)-1,7-naphthyridin-8-ylamino)-2′-methylbiphenyl-3-ylcarbamoyl)-1-methyl-6,7-dihydro-1H-imidazo[4,5-c]pyridin-5(4H)-yl)ethyl)cyclohexanecarboxylic acid]
IC50 [1]: < 0.01 µM
IC50 [2]: < 0.1 µM
IC50 [3]: < 0.01 µM
EC50 [4]: < 0.1 µM

CCN(C)CC(=O)N1Cc2nc(-c3cccc(-c4cccc(NC(=O)c5nc6c(n5C)CCN(C[C@H]5CC[C@H](C(=O)O)CC5)C6)c4Cl)c3C)sc2C1 [Compound 20, trans-4-((2-(2-chloro-3′-(5-(2-(ethyl(methyl)amino)acetyl)-5,6-dihydro-4H-pyrrolo[3,4-d]thiazol-2-yl)-2′-methylbipheiryl-3-ylcarbamoyl)-1-methyl-6,7-dihydro-1H-imidazo [4,5-c]pyridin-5 (4H)-yl)methyl)cyclohexane-1-carboxylic acid]
IC50 [1]: < 0.01 µM
IC50 [2]: < 0.5 µM
IC50 [3]: < 0.01 µM
EC50 [4]: < 0.5 µM

Cc1c(NC(=O)c2nc3c(n2C)CCN(CC[C@H]2CC[C@H](C(=O)O)CC2)C3)cccc1-c1cccc(NC(=O)c2nc3c(n2C)CCN(C)C3)c1Cl [Compound 16, trans-4-(2-(2-((2′-chloro-3′-(1,5-dimethyl-4,5,6,7-tetrahydro-1H-imidazo[4,5-c]pyfidine-2-caiboxamido)-2-methyl-[1,1′-biphenyl]-3-yl)caibamoyl)-1-methyl-1,4,6,7-tetrahydro-5H-imidazo[4,5-c]pyridin-5-yl)ethyl)cyclohexane-1-carboxylic acid]
IC50 [1]: < 0.01 µM
IC50 [2]: < 0.1 µM
IC50 [3]: < 0.01 µM
EC50 [4]: < 0.1 µM

Cn1c(C(=O)Nc2cccc(-c3cccc(NC(=O)c4nc5c(n4C)CCN(CC46CCC(C(=O)O)(CC4)C6)C5)c3Cl)c2Cl)nc2c1CCN(CCC13CCC(C(=O)O)(CC1)C3)C2 [Compound 31, 4-((2-((3′-(5-(2-(4-carboxybicyclo[2.2.1]heptan-1-yl)ethyl)-1-methyl-4,5,6,7-tetrahydro-1H-imidazo[4,5-c]pyridine-2-carboxamido)-2,2′-dichloro-[1,1′-biphenyl]-3-yl)carbamoyl)-1-methyl-1,4,6,7-tetrahydro-5H-imidazo[4,5-c]pyridin-5-yl)methyl)bicyclo[2.2.1]heptane-1-carboxylic acid]
IC50 [1]: < 0.01 µM
IC50 [2]: < 0.1 µM
IC50 [3]: < 0.01 µM
EC50 [4]: < 0.1 µM

Cc1c(Nc2ncnc3cc(CN4CC[C@@H](O)C4)cnc23)cccc1-c1cccc(NC(=O)c2nc3c(n2C)CCN(C2CCC(C)(C(=O)O)CC2)C3)c1Cl (stereo partly drawn) [Compound 12]
IC50 [1]: < 0.01 µM
IC50 [2]: < 0.1 µM
IC50 [3]: < 0.01 µM
EC50 [4]: < 0.1 µM

Cc1c(-c2nc3c(s2)CN(C(=O)CN(C)C(C)C)C3)cccc1-c1cccc(NC(=O)c2nc3c(n2C)CCN(CCC2CCC(C(=O)O)CC2)C3)c1Cl (stereo not drawn) [Compound 23, 4-(2-(2-(2-chloro-3′-(5-(2-(isopropyl(methyl)amino)acetyl)-5,6-dihydro-4H-pyrrolo[3,4-d]thiazol-2-yl)-2′-methylbiphenyl-3-ylcarbamoyl)-1-methyl-6,7-dihydro-1H-imidazo[4,5-c]pyridin-5(4H)-yl)ethyl)cyclohexane-1-carboxylic acid]
IC50 [1]: < 0.01 µM
IC50 [2]: < 0.1 µM
IC50 [3]: < 0.01 µM
EC50 [4]: < 0.1 µM
